In brackets after ≈: the same amount, converted by molar mass.
Legend:
Str. pneumoniae A-9585 = experiment: MIC, tube dilution, Streptococcus pneumoniae A9585; type: cell-based; conditions: overnight 37° C., Nutrient Broth; for Minimum Inhibitory Concentration (M.I.C.): Str. pneumoniae A9585; for MIC: Streptococcus pneumoniae, A9585, Str. pneumoniae A9585, read-out: Minimum Inhibitory Concentration (M.I.C.)
Source text: (§1) Representative compounds of the present invention were subjected to in vitro antibiotic screening against a variety of microorganisms.

Str. pyogenes A-9604 = experiment: MIC, tube dilution, Streptococcus pyogenes A9604; type: cell-based; conditions: overnight 37° C., Nutrient Broth; for Minimum Inhibitory Concentration (M.I.C.): Str. pyogenes A9604; for MIC: Streptococcus pyogenes, A9604, Str. pyogenes A9604, read-out: Minimum Inhibitory Concentration (M.I.C.)
Source text: as §1

Staph. aureus A-9537 = experiment: MIC, tube dilution, Staphylococcus aureus A9537; type: cell-based; conditions: overnight 37° C., Nutrient Broth; for Minimum Inhibitory Concentration (M.I.C.): Staph. aureus A9537; for MIC: Staphylococcus aureus, A9537, Staph. aureus A9537, read-out: Minimum Inhibitory Concentration (M.I.C.)
Source text: as §1

[1] = test system: Staph. aureus A-9537 and 50% serum; experiment: MIC, tube dilution, Staph. aureus A9537 + 50% serum; type: cell-based, Staphylococcus aureus; conditions: overnight 37° C.; for MIC: Staphylococcus aureus, read-out: Minimum Inhibitory Concentration (M.I.C.)
Source text: as §1

[2] = test system: Staph. aureus (Pen-Res) A-9606; experiment: MIC, tube dilution, Staphylococcus aureus A9606 (Pen-Res); type: cell-based; conditions: Staph. aureus A9606 (Pen-Res), overnight 37° C.; for MIC: Staphylococcus aureus, read-out: Minimum Inhibitory Concentration (M.I.C.)
Source text: as §1

[3] = test system: Staph. aureus (Meth-Res) A-15097; experiment: MIC, tube dilution, Staphylococcus aureus A15097 (Meth-Res); type: cell-based; conditions: Staph. aureus A15097 (Meth-Res), overnight 37° C.; for MIC: Staphylococcus aureus, read-out: Minimum Inhibitory Concentration (M.I.C.)
Source text: as §1

Str. faecalis A-20688 = experiment: MIC, tube dilution, Streptococcus faecalis A20688; type: cell-based; conditions: overnight 37° C.; for Minimum Inhibitory Concentration (M.I.C.): Str. faecalis A20688; for MIC: Enterococcus faecalis, A20688, Str. faecalis A20688, read-out: Minimum Inhibitory Concentration (M.I.C.)
Source text: as §1

E. coli A-15119 = experiment: MIC, tube dilution, Escherichia coli A15119; type: cell-based; conditions: overnight 37° C.; for Minimum Inhibitory Concentration (M.I.C.): E. coli A15119; for MIC: Escherichia coli, A15119, E. coli A15119, read-out: Minimum Inhibitory Concentration (M.I.C.)
Source text: as §1

E. coli A-20341-1 = experiment: MIC, tube dilution, Escherichia coli A20341-1; type: cell-based; conditions: overnight 37° C.; for Minimum Inhibitory Concentration (M.I.C.): E. coli A20341-1; for MIC: Escherichia coli, A203411, E. coli A20341-1, read-out: Minimum Inhibitory Concentration (M.I.C.)
Source text: as §1

K. pneumoniae A-15130 = experiment: MIC, tube dilution, Klebsiella pneumoniae A15130; type: cell-based; conditions: overnight 37° C.; for Minimum Inhibitory Concentration (M.I.C.): K. pneumoniae A15130; for MIC: Klebsiella pneumoniae, A15130, K. pneumoniae A15130, read-out: Minimum Inhibitory Concentration (M.I.C.)
Source text: as §1

[4] = test system: Klebsiella species A20468; experiment: MIC, tube dilution, Klebsiella species A20468; type: cell-based; conditions: Klebsiella species (K. pneumoniae) A20468, overnight 37° C.; for MIC: read-out: Minimum Inhibitory Concentration (M.I.C.)
Source text: as §1

Pr. mirabilis A-9900 = experiment: MIC, tube dilution, Proteus mirabilis A9900; type: cell-based; conditions: overnight 37° C.; for Minimum Inhibitory Concentration (M.I.C.): Proteus mirabilis A9900; for MIC: Proteus mirabilis, A9900, Proteus mirabilis A9900, read-out: Minimum Inhibitory Concentration (M.I.C.)
Source text: as §1

Pr. morganii A-15153 = experiment: MIC, tube dilution, Proteus morganii A15153; type: cell-based; conditions: overnight 37° C.; for Minimum Inhibitory Concentration (M.I.C.): Proteus morganii A15153; for MIC: Morganella morganii, A15153, Proteus morganii A15153, read-out: Minimum Inhibitory Concentration (M.I.C.)
Source text: as §1

Ser. marcescens A-20019 = experiment: MIC, tube dilution, Serratia marcescens A20019; type: cell-based; conditions: overnight 37° C.; for Minimum Inhibitory Concentration (M.I.C.): Serratia marcescens A20019; for MIC: Serratia marcescens, A20019, Serratia marcescens A20019, read-out: Minimum Inhibitory Concentration (M.I.C.)
Source text: as §1

Ent. cloacae A-9659 = experiment: MIC, tube dilution, Enterobacter cloacae A9659; type: cell-based; conditions: overnight 37° C.; for Minimum Inhibitory Concentration (M.I.C.): Enterobacter cloacae A9659; for MIC: Enterobacter cloacae, A9659, Enterobacter cloacae A9659, read-out: Minimum Inhibitory Concentration (M.I.C.)
Source text: as §1

Ent. cloacae A-9656 = experiment: MIC, tube dilution, Enterobacter cloacae A9656; type: cell-based; conditions: overnight 37° C.; for Minimum Inhibitory Concentration (M.I.C.): Enterobacter cloacae A9656; for MIC: Enterobacter cloacae, A9656, Enterobacter cloacae A9656, read-out: Minimum Inhibitory Concentration (M.I.C.)
Source text: as §1

Ps. aeruginosa A-9843A = experiment: MIC, tube dilution, Pseudomonas aeruginosa A9843A; type: cell-based; conditions: overnight 37° C.; for Minimum Inhibitory Concentration (M.I.C.): Pseudomonas aeruginosa A9843A; for MIC: Pseudomonas aeruginosa, A9843A, read-out: Minimum Inhibitory Concentration (M.I.C.), Pseudomonas aeruginosa A9843A
Source text: as §1

Ps. aeruginosa A-21213 = experiment: MIC, tube dilution, Pseudomonas aeruginosa A21213; type: cell-based; conditions: overnight 37° C.; for Minimum Inhibitory Concentration (M.I.C.): Pseudomonas aeruginosa A21213; for MIC: Pseudomonas aeruginosa, A21213, Pseudomonas aeruginosa A21213, read-out: Minimum Inhibitory Concentration (M.I.C.)
Source text: as §1

Proteus rettgeri A21203 = experiment: MIC, tube dilution, Proteus rettgeri A21203; type: cell-based; conditions: overnight 37° C.; for Minimum Inhibitory Concentration (M.I.C.): Proteus rettgeri A21203; for MIC: Providencia rettgeri, A21203, Proteus rettgeri A21203, read-out: Minimum Inhibitory Concentration (M.I.C.)
Source text: as §1

Proteus vulgaris A21559 = experiment: MIC, tube dilution, Proteus vulgaris A21559; type: cell-based; conditions: overnight 37° C.; for Minimum Inhibitory Concentration (M.I.C.): Proteus vulgaris A21559; for MIC: Proteus vulgaris, A21559, Proteus vulgaris A21559, read-out: Minimum Inhibitory Concentration (M.I.C.)
Source text: as §1

Structure (SMILES) | Minimum Inhibitory Concentration (M.I.C.) (Str. pneumoniae A-9585) | Minimum Inhibitory Concentration (M.I.C.) (Str. pyogenes A-9604) | Minimum Inhibitory Concentration (M.I.C.) (Staph. aureus A-9537) | Minimum Inhibitory Concentration (M.I.C.) [1] | Minimum Inhibitory Concentration (M.I.C.) [2] [µg/mL] | Minimum Inhibitory Concentration (M.I.C.) [3] [µg/mL] | Minimum Inhibitory Concentration (M.I.C.) (Str. faecalis A-20688) [µg/mL] | Minimum Inhibitory Concentration (M.I.C.) (E. coli A-15119) [µg/mL] | Minimum Inhibitory Concentration (M.I.C.) (E. coli A-20341-1) [µg/mL] | Minimum Inhibitory Concentration (M.I.C.) (K. pneumoniae A-15130) [µg/mL] | Minimum Inhibitory Concentration (M.I.C.) [4] [µg/mL] | Minimum Inhibitory Concentration (M.I.C.) (Pr. mirabilis A-9900) [µg/mL] | Minimum Inhibitory Concentration (M.I.C.) (Pr. morganii A-15153) [µg/mL] | Minimum Inhibitory Concentration (M.I.C.) (Ser. marcescens A-20019) [µg/mL] | Minimum Inhibitory Concentration (M.I.C.) (Ent. cloacae A-9659) [µg/mL] | Minimum Inhibitory Concentration (M.I.C.) (Ent. cloacae A-9656) [µg/mL] | Minimum Inhibitory Concentration (M.I.C.) (Ps. aeruginosa A-9843A) [µg/mL] | Minimum Inhibitory Concentration (M.I.C.) (Ps. aeruginosa A-21213) [µg/mL] | Minimum Inhibitory Concentration (M.I.C.) (Proteus rettgeri A21203) [µg/mL] | Minimum Inhibitory Concentration (M.I.C.) (Proteus vulgaris A21559) [µg/mL] | other results
NCCCCCC1=C(C(=O)O)N2C(=O)C[C@H]2S1 [Example 102, (5R) 2-(5'-aminopentyl)-penem-3-carboxylic acid] | .008 µg/mL | .016 µg/mL | .03 µg/mL | .25 µg/mL | 2 | 8 | 4 | 1 | 16 | 2 | > 63 | 2 | 2 | 2 | 4 | 2 | 8 | > 63 | 2 | 16 | –
C[C@@H](O)[C@H]1C(=O)N2C(C(=O)O)=C(COCCN)S[C@H]12 (relative stereo) [66,96] | – | – | – | – | – | – | – | – | – | – | – | – | – | – | – | – | – | – | – | – | MIC (Str. pneumoniae A-9585): 0.03 µg/mL (≈ 0.104 µM); MIC (Str. pyogenes A-9604): 0.03 µg/mL (≈ 0.104 µM); MIC (Staph. aureus A-9537): 0.06 µg/mL (≈ 0.208 µM); MIC [1]: 0.5 µg/mL; MIC [2]: 0.25 µg/mL (≈ 0.867 µM); MIC [3]: 1 µg/mL (≈ 3.47 µM); MIC (Str. faecalis A-20688): 4 µg/mL (≈ 13.9 µM); MIC (E. coli A-15119): 0.5 µg/mL (≈ 1.73 µM); MIC (E. coli A-20341-1): 0.5 µg/mL (≈ 1.73 µM); MIC (K. pneumoniae A-15130): 2 µg/mL (≈ 6.94 µM); MIC [4]: 2 µg/mL (≈ 6.94 µM); MIC (Pr. mirabilis A-9900): 1 µg/mL (≈ 3.47 µM); MIC (Pr. morganii A-15153): 4 µg/mL (≈ 13.9 µM); MIC (Ser. marcescens A-20019): 2 µg/mL (≈ 6.94 µM); MIC (Ent. cloacae A-9659): 8 µg/mL (≈ 27.7 µM); MIC (Ent. cloacae A-9656): 2 µg/mL (≈ 6.94 µM); MIC (Ps. aeruginosa A-9843A): 16 µg/mL (≈ 55.5 µM); MIC (Ps. aeruginosa A-21213): 8 µg/mL (≈ 27.7 µM); MIC (Proteus rettgeri A21203): 2 µg/mL (≈ 6.94 µM); MIC (Proteus vulgaris A21559): 1 µg/mL (≈ 3.47 µM)
NC1CCC(C2=C(C(=O)O)N3C(=O)C[C@H]3S2)C1 (single isomer, unassigned) [98 isomer C, 2-(3-Aminocyclopentyl)-penem-3-carboxylic acid] | .06 µg/mL | .06 µg/mL | .13 µg/mL | 4 µg/mL | > 63 | > 63 | 32 | 2 | 16 | 8 | > 63 | 8 | 16 | 8 | 16 | 8 | 32 | > 63 | 4 | 16 | –
N=C(NCC1=C(C(=O)O)N2C(=O)CC2S1)c1ccccc1 (centres unmarked) [Example 108, 2-Phenylimidoylaminomethylpenem-3-carboxylic Acid] | – | – | – | – | – | – | – | – | – | – | – | – | – | – | – | – | – | – | – | – | MIC (Str. pneumoniae A-9585): 0.25 µg/mL (≈ 0.824 µM); MIC (Str. pyogenes A-9604): 0.25 µg/mL (≈ 0.824 µM); MIC (Staph. aureus A-9537): 0.25 µg/mL (≈ 0.824 µM); MIC [1]: 16 µg/mL; MIC [2]: 16 µg/mL (≈ 52.7 µM); MIC [3]: > 125 µg/mL; MIC (Str. faecalis A-20688): 125 µg/mL (≈ 412 µM); MIC (E. coli A-15119): 63 µg/mL (≈ 208 µM); MIC (E. coli A-20341-1): > 125 µg/mL; MIC (K. pneumoniae A-15130): 125 µg/mL (≈ 412 µM); MIC [4]: > 125 µg/mL; MIC (Pr. mirabilis A-9900): 63 µg/mL (≈ 208 µM); MIC (Pr. morganii A-15153): 63 µg/mL (≈ 208 µM); MIC (Ser. marcescens A-20019): 125 µg/mL (≈ 412 µM); MIC (Ent. cloacae A-9659): 125 µg/mL (≈ 412 µM); MIC (Ent. cloacae A-9656): 125 µg/mL (≈ 412 µM); MIC (Ps. aeruginosa A-9843A): 63 µg/mL (≈ 208 µM); MIC (Ps. aeruginosa A-21213): 125 µg/mL (≈ 412 µM); MIC (Proteus rettgeri A21203): 63 µg/mL (≈ 208 µM); MIC (Proteus vulgaris A21559): 125 µg/mL (≈ 412 µM)

— patent publication US4272437A, “Antibacterial agents, and 4-thio azetidinone intermediates” (priority 1979, dated 1981)
